Data set [1] can be described thus: Stability of background to heat and humidity (heat sensitive recording paper, Macbeth Reflection Densitometer). To be noted: reflection density, filter #106; for Stability of Background to heat and humidity, After exposing: after 50° C. under 80% humidity; for Stability of Background to heat and humidity, Before exposing: before 50° C., 80% humidity. The source says: (§1) Example 4 (Preparation of Heat Sensitive Recording Paper)
(§2) A compound in the invention (or a reference compound)
(§3) Each above mixture was sufficiently homogenized by sand grinder to prepare Liquid A, B or C. One weight part of Liquid A, 2 weight parts of Liquid B and 1 weight part of Liquid C. were mixed to prepare a dispersion liquid to tint. The liquid was coated on white paper by applying Wire Rod No. 12, then dried to manufacture the heat sensitive recording paper.
(§4) In the preparation of Liquid C in Example 4, instead of the compound in the invention, 4-glycidyloxy-4'-isoprpoxydiphenylsulfone was taken place, the other components were same as Example 4 and the heat sensitive recording paper was similarly prepared.
(§5) A part of the heat sensitive recording papers which were prepared according to the Example 4 and the Comparative examples were heated from both sides to develop color at 150° C. by dry-heating tester (Kishino Science machinery Co.). Then, after they were placed in Incubator Controlled Humidity and Temperature at 50° C. under 80% humidity and in Fademeter (Type FAL-5, Suga Tester Co.) exposing for 3 hours, the stability of backgrounds, of the color images and anti-photo stability were determined by Macbeth Reflection Densitometer (Type RD-514, Ratten #106).

Data set [2] can be described thus: Photostability of developed image (Fademeter, Macbeth Reflection Densitometer). To be noted: reflection density, filter #106; for Photostability of developed image, After exposing: after Fademeter exposing for 3 hours; for Photostability of developed image, Before exposing: color developed at 150° C., before Fademeter.
Source text: as §1, §2, §3, §4, §5

The test system of data set [3] is Salmonela strains (TA-100 and TA-1535) and E. coli (WP2uvrA). The data set can be described thus: Mutagenic activity, Ames test. In kind it is cell-based. Conditions: for increase of recovery mutation colony: 128-5000 μg/plate, metabolic activation (S9) and inactivation, all strains; for mutagenicity (conclusion of Ames test): with and without metabolic activation. As for the experimental part: (§6) Mutagenic activity of the compound No. 1 in the invention and 4,4'-diglycidyldiphenylsulfone was evaluated by Ames test for using Salmonela strains (TA-100 and TA-1535) and E. coli (WP2uvrA) under conditions of metabolic activation and metabolic inactivation. The metabolic activation system was consisted of supernatant of 9000 G in centrifugation from rat liver homogenate (S9) mixture which was induced by 5,6-benzoflavone or phenobar bital, and a coenzyme. Both test compounds were prepared at concentration of 50 mg/mL by using dimethylformamide. Then, they were successively diluted to prepare lower concentration solutions by the same solvent. The concentration of each test substance is adjusted to be 128, 320, 800, 2000 and 5000 μg/plate. The test mixture of the bacteria, each test substance and sodium phosphate buffer solution (S9 mixture under the metabolic activation condition) was incubated at 37° C. for 20 minutes. After the incubation the mixture was added by soft agar solution containing minimum nutrients, homogeneously inoculated on an agar plate and incubated at 37° C. for 65 hours. […] It was concluded from the results that the compound No 1. was not mutagenic, but 4,4'-diglycidyldiphenylsulfone was mutagen.
(The Ames test detects mutagens through reverse mutation in bacteria.)

The nature of data set [4]: Deposited materials observed after incubation in Ames test. In kind it is physicochemical. To be noted: both conditions of metabolic activation and inactivation. As to the method: as §6

The text below walks through data of patent US5340788A, “Diphenylsulfone derivatives and heat sensitive recording materials” (Nippon Soda Co., Ltd., priority 1990, dated 1994).

For the compound `Cc1ccc(COc2ccc(S(=O)(=O)c3ccc(OCC4(C)CO4)cc3)cc2)cc1` (stereo not drawn) [(6)], in data set [1], the “Stability of Background to heat and humidity, After exposing” value (“Stability of Background … After exposing” below) is 0.12; the “Stability of Background to heat and humidity, Before exposing” value (shortened to “Stability of Background … Before exposing”) came out at 0.09. Also, in data set [2], the “Photostability of developed image, After exposing” value (from here on “Photostability … After exposing”) was found to be 1.16 and the “Photostability of developed image, Before exposing” value (“Photostability … Before exposing” for short) amounted to 1.22.

With `CC(C)Oc1ccc(S(=O)(=O)c2ccc(OCC3CO3)cc2)cc1` (stereo not drawn) [compound 1, 4-glycidyloxy-4'-isoprpoxydiphenylsulfone, reference compound], in data set [1], the “Stability of Background … After exposing” value is on record as 0.17; the “Stability of Background … Before exposing” value is on record as 0.07. Further, in data set [2], the “Photostability … After exposing” value is 1.00 and the “Photostability … Before exposing” value worked out at 1.19.

Turning to `CC1(COc2ccc(S(=O)(=O)c3ccc(OCc4ccccc4Cl)cc3)cc2)CO1` (stereo not drawn) [(3)], in data set [1], the “Stability of Background … After exposing” value came to 0.10; the “Stability of Background … Before exposing” value stood at 0.08. In data set [2], the “Photostability … After exposing” value is listed as 1.09 and the “Photostability … Before exposing” value came out at 1.22.

With `C=CCOc1ccc(S(=O)(=O)c2ccc(OCC3CO3)cc2)cc1` (stereo not drawn) [(7)], in data set [1], the “Stability of Background … After exposing” value turned out to be 0.07; the “Stability of Background … Before exposing” value came out at 0.07. In data set [2], the “Photostability … After exposing” value came to 1.12 and the “Photostability … Before exposing” value stood at 1.21.

`O=S(=O)(c1ccc(OCC2CO2)cc1)c1ccc(OCC2CO2)cc1` (stereo not drawn) [4,4'-diglycidyloxydiphenylsulfone, reference compound]: in data set [3], the “increase of recovery mutation colony” value is given as “increases of recovery mutation colony were in all strains” and the “mutagenicity (conclusion of Ames test)” value is listed as “mutagenic”. Further, the “mutagenicity (conclusion of Ames test)” value in data set [3] (listed as 4,4'-diglycidyldiphenylsulfone) is listed as “mutagen”. The “concentration above which deposited materials were observed” value in data set [4] is on record as 320-800 μg/plate.

`CC1(COc2ccc(S(=O)(=O)c3ccc(OCc4ccc(Cl)cc4)cc3)cc2)CO1` (stereo not drawn) [(4)]: in data set [1], the “Stability of Background … After exposing” value was found to be 0.09; the “Stability of Background … Before exposing” value was 0.07. Also, in data set [2], the “Photostability … After exposing” value is 1.14 and the “Photostability … Before exposing” value is recorded as 1.23.

For the compound `CC1(COc2ccc(S(=O)(=O)c3ccc(OCc4ccccc4)cc3)cc2)CO1` (stereo not drawn) [compound (1), 4-benzyloxy-4'-(2-methylglycidyloxy)diphenylsulfone], the “increase of recovery mutation colony” value in data set [3] is on record as “No increase of recovery mutation colony was observed in any strain”. In addition, in data set [3] (listed as compound No. 1), the “mutagenicity (conclusion of Ames test)” value is given as “not mutagenic”. For the same compound, the “concentration above which deposited materials were observed” value in data set [4] is > 800 μg/plate. In data set [1], the “Stability of Background … After exposing” value was 0.07; the “Stability of Background … Before exposing” value amounted to 0.06. Further, in data set [2], the “Photostability … After exposing” value amounted to 1.13 and the “Photostability … Before exposing” value is reported as 1.21.

Turning to `Cc1ccc(COc2ccc(S(=O)(=O)c3ccc(OCC4CO4)cc3)cc2)cc1` (stereo not drawn) [compound (5), 4-(4-methylbenzyloxy)-4'-glycidyloxydiphenylsulfone], in data set [1], the “Stability of Background … After exposing” value worked out at 0.10; the “Stability of Background … Before exposing” value came out at 0.08. In addition, in data set [2], the “Photostability … After exposing” value is 1.12 and the “Photostability … Before exposing” value stood at 1.20.

On to `O=S(=O)(c1ccc(OCc2ccc(Cl)cc2)cc1)c1ccc(OCC2CO2)cc1` (stereo not drawn) [(2)], for which, in data set [1], the “Stability of Background … After exposing” value was found to be 0.11; the “Stability of Background … Before exposing” value amounted to 0.07. For the same compound, in data set [2], the “Photostability … After exposing” value amounted to 1.15 and the “Photostability … Before exposing” value came out at 1.23.
